According to the Kinase Knowledgebase extract (Sharma et al. 2016):
Values joined by “and” are separate entries in the source; they are usually repeats but may differ in a detail not shown here. Equal values may be shown once.

Molecular target: EGFR (UniProt P00533)
Experiment: Inhibition of EGFR Kinase Activity

Sequence of EGFR (P00533 whole entry, looked up): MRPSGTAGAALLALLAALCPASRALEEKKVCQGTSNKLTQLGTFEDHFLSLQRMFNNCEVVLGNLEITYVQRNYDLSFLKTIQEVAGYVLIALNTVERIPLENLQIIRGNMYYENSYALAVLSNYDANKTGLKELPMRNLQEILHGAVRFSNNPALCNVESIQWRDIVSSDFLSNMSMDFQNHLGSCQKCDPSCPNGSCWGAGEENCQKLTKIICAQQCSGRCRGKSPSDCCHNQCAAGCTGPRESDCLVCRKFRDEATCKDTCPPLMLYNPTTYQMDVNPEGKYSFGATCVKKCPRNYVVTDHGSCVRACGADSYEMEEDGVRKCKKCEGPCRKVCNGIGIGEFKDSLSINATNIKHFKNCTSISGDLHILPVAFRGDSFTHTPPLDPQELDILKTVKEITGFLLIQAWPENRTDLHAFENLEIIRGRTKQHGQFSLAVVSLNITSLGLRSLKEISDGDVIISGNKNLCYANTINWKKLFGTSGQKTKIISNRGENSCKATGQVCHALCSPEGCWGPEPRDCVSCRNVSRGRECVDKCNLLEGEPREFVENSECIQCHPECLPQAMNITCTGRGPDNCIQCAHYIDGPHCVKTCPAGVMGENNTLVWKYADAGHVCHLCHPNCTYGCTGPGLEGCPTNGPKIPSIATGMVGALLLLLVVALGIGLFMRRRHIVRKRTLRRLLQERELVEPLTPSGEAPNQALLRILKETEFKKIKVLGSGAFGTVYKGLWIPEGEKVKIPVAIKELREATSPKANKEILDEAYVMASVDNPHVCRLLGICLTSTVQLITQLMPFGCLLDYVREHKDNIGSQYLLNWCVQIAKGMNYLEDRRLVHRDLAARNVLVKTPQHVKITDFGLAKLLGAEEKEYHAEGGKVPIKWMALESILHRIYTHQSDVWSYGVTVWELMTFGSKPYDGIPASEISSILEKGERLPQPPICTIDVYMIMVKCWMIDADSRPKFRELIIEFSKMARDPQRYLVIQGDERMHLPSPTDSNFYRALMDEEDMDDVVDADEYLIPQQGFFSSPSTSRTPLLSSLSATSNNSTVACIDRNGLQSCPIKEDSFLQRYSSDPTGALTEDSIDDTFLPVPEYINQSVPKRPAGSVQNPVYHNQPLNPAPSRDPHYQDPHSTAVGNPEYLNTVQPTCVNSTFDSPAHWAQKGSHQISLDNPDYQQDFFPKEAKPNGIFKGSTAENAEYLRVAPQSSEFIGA

Structure (SMILES)	IC50
Cc1cccc(Nc2ncnc3ccccc23)c1	912 nM
OCC(O)CNN1=CC=C2N=CN=C(Nc3cccc(Br)c3)C2=C1	0.9 nM
Cc1cccc(Nc2ncnc3cnc(NCCN4CCOCC4)nc23)c1	2.3 nM
COc1cc2ncnc(Nc3cccc(Br)c3)c2cc1[N+](=O)[O-]	15 nM
Cc1cccc(Nc2ncnc3cnc(NCCc4c[nH]cn4)nc23)c1	3 nM
Nc1cc2ncnc(Nc3ccccc3)c2cn1	251 nM
Brc1cccc(Nc2ncnc3cnc(NCCN4CCOCC4)nc23)c1	0.8 nM
Fc1cccc(Nc2ncnc3ccccc23)c1	56 nM
Fc1cc2ncnc(Nc3cccc(Br)c3)c2cn1	13 nM
Clc1ncc2ncnc(Nc3cccc(Br)c3)c2n1	83 nM
CN(C)c1ccc2ncnc(Nc3cccc(Br)c3)c2n1	9.7 nM
CN1CCN(CCCNN2=CC=C3N=CN=C(Nc4cccc(C)c4)C3=C2)CC1	5.6 nM
OCCNN1=CC=C2N=CN=C(Nc3cccc(Br)c3)C2=C1	0.2 nM
Brc1cccc(NC2=NC=NC3=CC=N(NCCN4CCOCC4)C=C23)c1	3.2 nM
COc1ccc2ncnc(Nc3cccc(Br)c3)c2c1	354 nM
CN(C)CCCCCNN1=CC=C2N=CN=C(Nc3cccc(Br)c3)C2=C1	8.5 nM
Nc1cc2ncnc(Nc3cccc(O)c3)c2cn1	70 nM
OC(=O)CNN1=CC=C2N=CN=C(Nc3cccc(Br)c3)C2=C1	1.5 nM
CC(=O)Nc1cc2ncnc(Nc3cccc(Br)c3)c2cn1	29 nM
CN(C)c1ccc2c(Nc3cccc(Br)c3)ncnc2c1	11 nM
Nc1ccc2ncnc(Nc3cccc(Br)c3)c2n1	7.7 nM
CN(CCO)N1=CC=C2N=CN=C(Nc3cccc(Br)c3)C2=C1	2.6 nM
Nc1cc2c(Nc3cccc(Br)c3)ncnc2cc1Cl	6.6 nM
Cc1cccc(Nc2ncnc3cnc(N(C)C)nc23)c1	4 nM
COc1cc2ncnc(Nc3cccc(I)c3)c2cc1OC	0.89 nM

Structure (SMILES)	IC50
OCCN(CCO)N1=CC=C2N=CN=C(Nc3cccc(Br)c3)C2=C1	12 nM
Brc1cccc(Nc2ncnc3ccccc23)c1	27.5 nM
COc1cc2ncnc(Nc3ccc(Br)cc3)c2cc1OC	0.97 nM
COc1ncc2ncnc(Nc3cccc(Br)c3)c2n1	3.8 nM
COc1cc2ncnc(Nc3ccccc3)c2cc1OC	29 nM
COc1ccc(Nc2ncnc3cc(N)ncc23)cc1	670 nM
CN(C)CCCNN1=CC=C2N=CN=C(Nc3cccc(Br)c3)C2=C1	8.9 nM
Ic1cccc(Nc2ncnc3ccccc23)c1	81 nM
CN(C)CCCCNN1=CC=C2N=CN=C(Nc3cccc(Br)c3)C2=C1	7.4 nM
CN(C)c1cccc(Nc2ncnc3cc(N)ncc23)c1	1810 nM
COc1cc2c(Nc3cccc(Br)c3)ncnc2cn1	2.6 nM
CNc1cc2ncnc(Nc3cccc(Br)c3)c2cc1[N+](=O)[O-]	69 nM
Cc1cccc(Nc2ncnc3cnc(N)nc23)c1	17 nM
Nc1cc2ncnc(Nc3cccc(Br)c3)c2cc1N	0.12 nM
Nc1ncc2ncnc(Nc3cccc(Br)c3)c2n1	1.5 nM
O=[N+]([O-])c1cc2c(Nc3cccc(Br)c3)ncnc2cc1Cl	25 nM
O=[N+]([O-])c1ccc2c(Nc3cccc(Br)c3)ncnc2c1	1000 nM
Nc1ccc2ncnc(Nc3ccccc3)c2c1	776 nM
COc1ccc2c(Nc3cccc(Br)c3)ncnc2c1	10 nM
CNc1ncc2ncnc(Nc3ccccc3)c2n1	13 nM
Brc1cccc(NC2=NC=NC3=CC=N(NCCCn4ccnc4)C=C23)c1	0.5 nM
CC(=O)Nc1ccc2c(Nc3cccc(Br)c3)ncnc2c1	40 nM
Brc1cccc(NC2=NC=NC3=CC=N(NCCCCN4CCOCC4)C=C23)c1	5.4 nM
CNc1ccc2ncnc(Nc3cccc(Br)c3)c2n1	3.1 nM
CN(C)c1ccc2c(Nc3cccc(Br)c3)ncnc2n1	330 nM

Structure (SMILES)	IC50
CNc1ncc2ncnc(Nc3cccc(Br)c3)c2n1	0.7 nM
NNN1=CC=C2N=CN=C(Nc3cccc(Br)c3)C2=C1	7.2 nM
COc1ccccc1Nc1ncnc2cc(N)ncc12	3710 nM
Clc1cccc(Nc2ncnc3ccccc23)c1	23.4 nM
Brc1cccc(NC2=NC=NC3=CC=N(NCCc4c[nH]cn4)C=C23)c1	0.9 nM
CNc1cc2ncnc(Nc3cccc(Br)c3)c2cc1N	0.69 nM
Nc1cc2ncnc(Nc3ccccc3Br)c2cn1	245 nM
CNc1ccc2ncnc(Nc3cccc(Br)c3)c2c1	4 nM
Nc1cc2ncnc(Nc3cccc(F)c3)c2cn1	850 nM
Clc1cc2c(Nc3cccc(Br)c3)ncnc2cn1	40 nM
CCCOc1cc2ncnc(Nc3cccc(Br)c3)c2cc1OCCC	0.17 nM
COc1cc2ncnc(Nc3cccc(Br)c3)c2cc1N	3.8 nM
Brc1cccc(Nc2ncnc3cnc(NCCc4c[nH]cn4)nc23)c1	0.2 nM
CN(C)c1cc2ncnc(Nc3cccc(Br)c3)c2cc1N	160 nM
O=[N+]([O-])c1ccc2ncnc(Nc3cccc(Br)c3)c2c1	912 nM
Nc1cc2ncnc(Nc3ccccc3N)c2cn1	5370 nM
OC(=O)CCNN1=CC=C2N=CN=C(Nc3cccc(Br)c3)C2=C1	0.6 nM
Nc1ccc2ncnc(Nc3cccc(C(F)(F)F)c3)c2c1	575 nM
FC(F)(F)c1cccc(Nc2ncnc3ccccc23)c1	588 nM
OS(=O)(=O)CCNN1=CC=C2N=CN=C(Nc3cccc(Br)c3)C2=C1	1.4 nM
CN(CC(=O)O)N1=CC=C2N=CN=C(Nc3cccc(Br)c3)C2=C1	16 nM
CN(C)c1ccc(Nc2ncnc3cc(N)ncc23)cc1	4890 nM
Brc1cccc(NC2=NC=NC3=CC=N(NCCCN4CCOCC4)C=C23)c1	1.9 nM
COc1ccc2c(Nc3cccc(Br)c3)ncnc2n1	260 nM
Nc1ccc2c(Nc3ccccc3)ncnc2c1	100 nM

Structure (SMILES)	IC50
Fc1cc2c(Nc3cccc(Br)c3)ncnc2cn1	125 nM
COc1ccc2ncnc(Nc3ccccc3)c2c1	56 nM and 120 nM
OCCN(CCO)CCCNN1=CC=C2N=CN=C(Nc3cccc(Br)c3)C2=C1	1.2 nM
OC(=O)CCCNN1=CC=C2N=CN=C(Nc3cccc(Br)c3)C2=C1	0.2 nM
Nc1cc2ncnc(Nc3cccc(Br)c3)c2cn1	10 nM
COc1cc2ncnc(Nc3cccc(C(F)(F)F)c3)c2cc1OC	0.24 nM
Cc1cccc(Nc2ncnc3cnc(Cl)nc23)c1	380 nM
OCN(CO)N1=CC=C2N=CN=C(Nc3cccc(Br)c3)C2=C1	14 nM
CN(C)CCCCNN1=CC=C2N=CN=C(Nc3cccc(C)c3)C2=C1	5.4 nM
Cc1cccc(NC2=NC=NC3=CC=N(NCCCn4ccnc4)C=C23)c1	3.5 nM
COc1cc2ncnc(Nc3cccc(Br)c3)c2cn1	39 nM
Nc1cc2ncnc(Nc3ccc(C(F)(F)F)cc3)c2cn1	4780 nM
Brc1cccc(Nc2ncnc3cnc(NCCn4ccnc4)nc23)c1	2.3 nM
Oc1cc2ncnc(Nc3cccc(Br)c3)c2cc1O	0.17 nM
CN(C)CCN(C)N1=CC=C2N=CN=C(Nc3cccc(Br)c3)C2=C1	40 nM
Oc1ccc2c(Nc3cccc(Br)c3)ncnc2c1	4.7 nM
CCOc1cc2ncnc(Nc3cccc(Br)c3)c2cc1OCC	0.006 nM
CN(C)CCNN1=CC=C2N=CN=C(Nc3cccc(Br)c3)C2=C1	45 nM
O=[N+]([O-])c1ccc2c(Nc3cccc(Cl)c3)ncnc2c1	812 nM
CN1CCN(CCCNN2=CC=C3N=CN=C(Nc4cccc(Br)c4)C3=C2)CC1	5 nM
CN(C)c1ccc2ncnc(Nc3cccc(Br)c3)c2c1	85 nM
CN(CC(O)CO)N1=CC=C2N=CN=C(Nc3cccc(Br)c3)C2=C1	3.2 nM
O=[N+]([O-])c1ccc2c(Nc3cccc(I)c3)ncnc2c1	549 nM
